The source of these data is patent US12161654B2, “Stability of vitamin D in β-hydroxy-β-methylbutyrate (HMB)” (Metabolic Technologies, LLC, priority 2018, dated 2024).

The conditions of data set [1]: after HMB is fed; cited from earlier work.
The conditions of data set [2]: healthy young or old adults; cited from earlier work.
A short description of data set [3]: pH of HMBFA and buffered HMBFA. Type of data set: physicochemical. From the text:
In most instances, the HMB utilized in clinical studies and marketed as an ergogenic aid has been in the calcium salt form. Recent advances have allowed the HMB to be manufactured in a free acid form for use human and animal uses, and preferably as a nutritional supplement or incorporated into foodstuffs. […] The pH of HMBFA is <3.
Preparation of Buffered HMB in the Free Acid Form (HMBFA) Briefly, 400 g HMBFA (TSI lot 12111036) was weigh into a one liter beaker and then 37.8 g of with potassium carbonate (K2CO3) was added to the HMBFA. A stir bar was added and the mixture was stirred for 60 h. The resulting pH was approximately 4.5. Alternatively, the reaction may be accelerated by mixing water (35 g) with potassium carbonate (37) g and then adding HMBFA (400 g).

With `CC(C)(O)CC(=O)O` [HMB, β-hydroxy-β-methylbutyrate], the “loss of HMB to urine” value in data set [1] is recorded as 20-50%. The side effects result in data set [2] is reported as “no side effects”.
In the case of `CC(C)(O)CC(=O)O` [HMBFA, β-hydroxy-β-methylbutyrate], the pH in data set [3] was below 3.
